Earlier results, collected in publication PMC4536914 (Chembiochem : a European journal of chemical biology, 2012).

Target: Plk1 PBD (HA-EGFP-Plk1 in mitotic 293A cell lysates) (Homo sapiens, UniProt P53350)
Conditions: previous work; ref [10]

Chain of Plk1 PBD (HA-EGFP-Plk1 in mitotic 293A cell lysates) (P53350 whole entry): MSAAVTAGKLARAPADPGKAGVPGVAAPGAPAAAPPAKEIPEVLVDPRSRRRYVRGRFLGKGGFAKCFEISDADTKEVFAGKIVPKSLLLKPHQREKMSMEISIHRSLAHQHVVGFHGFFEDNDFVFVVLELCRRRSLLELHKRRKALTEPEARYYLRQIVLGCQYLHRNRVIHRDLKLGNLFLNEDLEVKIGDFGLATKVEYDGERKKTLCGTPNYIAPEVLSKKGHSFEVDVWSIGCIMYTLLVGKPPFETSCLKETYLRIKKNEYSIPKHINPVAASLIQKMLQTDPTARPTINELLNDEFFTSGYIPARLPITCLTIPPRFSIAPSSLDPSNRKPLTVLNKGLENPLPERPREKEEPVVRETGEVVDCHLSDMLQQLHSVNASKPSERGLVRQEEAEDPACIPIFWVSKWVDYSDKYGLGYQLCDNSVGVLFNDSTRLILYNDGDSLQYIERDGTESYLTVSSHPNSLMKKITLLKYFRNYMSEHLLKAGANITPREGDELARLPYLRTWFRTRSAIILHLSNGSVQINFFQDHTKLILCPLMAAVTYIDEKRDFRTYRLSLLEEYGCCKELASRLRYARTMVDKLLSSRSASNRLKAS

LHSpT
Plk1 PBD-binding affinity relative to parent peptide 1: significantly less Plk1 PBD-binding affinity than the parent peptide 1
